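Protocol summary: plate cells (96-well), add compound at 5 concentrations, incubate 48 h, interpolate endpoints linearly. At the TGI there is no net growth.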
What follows are molecules tested on MOLT-4 leukemia (assay: NCI anticancer screen, dose series, 48 h).

Row | Structure (SMILES) | TGI [µM]
1 | COc1cc2c(c(OC)c1OC)CCNC2C1=C(O)COC1=O (configuration not stated) | > 100
2 | CN(C)CCNC(=O)c1cccc2nc3c(ccc4ccccc43)nc12 | 1.6
3 | NCCCNC(=O)c1csc(NC(=O)c2csc(NC(=O)CCCN)n2)n1 | > 100

What follows are molecules tested on NCI-H226 lung (assay: NCI anticancer screen, dose series, 48 h).

Row | Structure (SMILES) | TGI [µM]
4 | CCCCCCCCCCCCC(=O)CCCCC(=O)O | 59.1
5 | COc1cc2c(c(OC)c1OC)CCNC2C1=C(O)COC1=O (configuration not stated) | 99.5
6 | CN(C)CCNC(=O)c1cccc2nc3c(ccc4ccccc43)nc12 | 10.9
7 | NCCCNC(=O)c1csc(NC(=O)c2csc(NC(=O)CCCN)n2)n1 | > 100

The molecules below were run on NCI-H23 lung (assay: NCI anticancer screen, dose series, 48 h).

Row | Structure (SMILES) | TGI [µM]
8 | CCCCCCCCCCCCC(=O)CCCCC(=O)O | > 100
9 | CN(C)CCNC(=O)c1cccc2nc3c(ccc4ccccc43)nc12 | 15.9
10 | NCCCNC(=O)c1csc(NC(=O)c2csc(NC(=O)CCCN)n2)n1 | > 100

These molecules were tested on NCI-H460 lung (assay: NCI anticancer screen, dose series, 48 h).

Row | Structure (SMILES) | TGI [µM]
11 | CCCCCCCCCCCCC(=O)CCCCC(=O)O | 39.1
12 | COc1cc2c(c(OC)c1OC)CCNC2C1=C(O)COC1=O (configuration not stated) | > 100
13 | CN(C)CCNC(=O)c1cccc2nc3c(ccc4ccccc43)nc12 | 1.91
14 | NCCCNC(=O)c1csc(NC(=O)c2csc(NC(=O)CCCN)n2)n1 | > 100

These molecules were tested on NCI-H522 lung (assay: NCI anticancer screen, dose series, 48 h).

Row | Structure (SMILES) | TGI [µM]
15 | CCCCCCCCCCCCC(=O)CCCCC(=O)O | 42.1
16 | COc1cc2c(c(OC)c1OC)CCNC2C1=C(O)COC1=O (configuration not stated) | > 100
17 | CN(C)CCNC(=O)c1cccc2nc3c(ccc4ccccc43)nc12 | 18.7
18 | NCCCNC(=O)c1csc(NC(=O)c2csc(NC(=O)CCCN)n2)n1 | > 100

The molecules below were run on OVCAR-3 ovarian (assay: NCI anticancer screen, dose series, 48 h).

Row | Structure (SMILES) | TGI [µM]
19 | CCCCCCCCCCCCC(=O)CCCCC(=O)O | > 100
20 | CN(C)CCNC(=O)c1cccc2nc3c(ccc4ccccc43)nc12 | 19.7
21 | NCCCNC(=O)c1csc(NC(=O)c2csc(NC(=O)CCCN)n2)n1 | > 100

What follows are molecules tested on OVCAR-4 ovarian (assay: NCI anticancer screen, dose series, 48 h).

Row | Structure (SMILES) | TGI [µM]
22 | CCCCCCCCCCCCC(=O)CCCCC(=O)O | > 100
23 | COc1cc2c(c(OC)c1OC)CCNC2C1=C(O)COC1=O (configuration not stated) | > 100
24 | CN(C)CCNC(=O)c1cccc2nc3c(ccc4ccccc43)nc12 | 5.27
25 | NCCCNC(=O)c1csc(NC(=O)c2csc(NC(=O)CCCN)n2)n1 | 44

Each molecule was assayed on OVCAR-5 ovarian (assay: NCI anticancer screen, dose series, 48 h).

Row | Structure (SMILES) | TGI [µM]
26 | CCCCCCCCCCCCC(=O)CCCCC(=O)O | 35.8
27 | COc1cc2c(c(OC)c1OC)CCNC2C1=C(O)COC1=O (configuration not stated) | > 100
28 | CN(C)CCNC(=O)c1cccc2nc3c(ccc4ccccc43)nc12 | 15
29 | NCCCNC(=O)c1csc(NC(=O)c2csc(NC(=O)CCCN)n2)n1 | > 100

These molecules were tested on OVCAR-8 ovarian (assay: NCI anticancer screen, dose series, 48 h).

Row | Structure (SMILES) | TGI [µM]
30 | CCCCCCCCCCCCC(=O)CCCCC(=O)O | 39.7
31 | COc1cc2c(c(OC)c1OC)CCNC2C1=C(O)COC1=O (configuration not stated) | > 100
32 | CN(C)CCNC(=O)c1cccc2nc3c(ccc4ccccc43)nc12 | 7.84
33 | NCCCNC(=O)c1csc(NC(=O)c2csc(NC(=O)CCCN)n2)n1 | > 100

These molecules were tested on PC-3 prostate (assay: NCI anticancer screen, dose series, 48 h).

Row | Structure (SMILES) | TGI [µM]
34 | CN(C)CCNC(=O)c1cccc2nc3c(ccc4ccccc43)nc12 | 10.1

What follows are molecules tested on RPMI-8226 leukemia (assay: NCI anticancer screen, dose series, 48 h).

Row | Structure (SMILES) | TGI [µM]
35 | CCCCCCCCCCCCC(=O)CCCCC(=O)O | 40.8
36 | COc1cc2c(c(OC)c1OC)CCNC2C1=C(O)COC1=O (configuration not stated) | > 100
37 | CN(C)CCNC(=O)c1cccc2nc3c(ccc4ccccc43)nc12 | 6.66
38 | NCCCNC(=O)c1csc(NC(=O)c2csc(NC(=O)CCCN)n2)n1 | > 100

Each molecule was assayed on RXF 393 renal (assay: NCI anticancer screen, dose series, 48 h).

Row | Structure (SMILES) | TGI [µM]
39 | CCCCCCCCCCCCC(=O)CCCCC(=O)O | > 100
40 | COc1cc2c(c(OC)c1OC)CCNC2C1=C(O)COC1=O (configuration not stated) | > 100
41 | CN(C)CCNC(=O)c1cccc2nc3c(ccc4ccccc43)nc12 | 9.54

What follows are molecules tested on RXF-631 renal (assay: NCI anticancer screen, dose series, 48 h).

Row | Structure (SMILES) | TGI [µM]
42 | CCCCCCCCCCCCC(=O)CCCCC(=O)O | 38.6
43 | COc1cc2c(c(OC)c1OC)CCNC2C1=C(O)COC1=O (configuration not stated) | > 100
44 | CN(C)CCNC(=O)c1cccc2nc3c(ccc4ccccc43)nc12 | 2.43
45 | NCCCNC(=O)c1csc(NC(=O)c2csc(NC(=O)CCCN)n2)n1 | > 100

What follows are molecules tested on SF-268 CNS (assay: NCI anticancer screen, dose series, 48 h).

Row | Structure (SMILES) | TGI [µM]
46 | CCCCCCCCCCCCC(=O)CCCCC(=O)O | 71.6
47 | COc1cc2c(c(OC)c1OC)CCNC2C1=C(O)COC1=O (configuration not stated) | > 100
48 | CN(C)CCNC(=O)c1cccc2nc3c(ccc4ccccc43)nc12 | 2.19
49 | NCCCNC(=O)c1csc(NC(=O)c2csc(NC(=O)CCCN)n2)n1 | > 100

What follows are molecules tested on SF-295 CNS (assay: NCI anticancer screen, dose series, 48 h).

Row | Structure (SMILES) | TGI [µM]
50 | CCCCCCCCCCCCC(=O)CCCCC(=O)O | 51.2
51 | COc1cc2c(c(OC)c1OC)CCNC2C1=C(O)COC1=O (configuration not stated) | > 100
52 | CN(C)CCNC(=O)c1cccc2nc3c(ccc4ccccc43)nc12 | 14.3
53 | NCCCNC(=O)c1csc(NC(=O)c2csc(NC(=O)CCCN)n2)n1 | > 100

These molecules were tested on SF-539 CNS (assay: NCI anticancer screen, dose series, 48 h).

Row | Structure (SMILES) | TGI [µM]
54 | CCCCCCCCCCCCC(=O)CCCCC(=O)O | 36.6
55 | COc1cc2c(c(OC)c1OC)CCNC2C1=C(O)COC1=O (configuration not stated) | > 100
56 | CN(C)CCNC(=O)c1cccc2nc3c(ccc4ccccc43)nc12 | 3.59
57 | NCCCNC(=O)c1csc(NC(=O)c2csc(NC(=O)CCCN)n2)n1 | > 100

— PubChem BioAssay (NCI)
